In brackets after ≈: the same amount, converted by molar mass.
What was measured:
Assay in all cases: MIC, agar dilution in Mueller Hinton Agar
Type in all cases: cell-based
[1] = system: Escherichia Coli 9379; conditions: COLI9379, culture 9379, MHA, 35° C., 20 hours, read-out: Minimum Inhibitory Concentration
Procedure: (§1) The compounds of this invention and their respective pharmacologically acceptable salts have antibiotic activity against a variety of gram-negative bacteria including Escherichia coli, Klebsiella pneumoniae, and Pseudomonas aeruginosa. The compounds are useful for treating bacterial infections in animals, including and most preferably humans. Compounds of the invention are tested for in vitro antimicrobial activity using standard testing procedures such as the determination of minimum inhibitory concentration (MIC) by methods described in "Methods for Dilution Antimicrobial Susceptibility Tests for Bacteria That Grow Aerobically" (M7-A) Published December 1985 by the National Committee for Clinical Laboratory Standards, 771 East Lancaster Avenue, Villanova, Pa. 19084. Briefly, MIC values are determined in unsupplemented Mueller Hinton Agar (MHA). The compounds tested are diluted serially into molten MHA at 47 C. The agar is poured into petri dishes and allowed to harden. The various bacteria used for testing are grown overnight on MHA at 35 C. and transferred to Tryptiease Soy Broth (TSB) until a turbidity of 0.5 McFarland standard is obtained. The bacteria are diluted one to twenty in TSB and inoculated on the plates (1 μl using a Steers replicator).

[2] = system: Streptococcus Faecalis 694; conditions: Enterococcus faecalis, culture 694, MHA, 35° C., 20 hours, read-out: Minimum Inhibitory Concentration
Procedure: as §1

[3] = system: Streptococcus Pyogenes 152; conditions: culture 152, MHA, 35° C., 20 hours, read-out: Minimum Inhibitory Concentration
Procedure: as §1

[4] = system: Staphylococcus Aursus 6685; conditions: AURSUS6685, culture 6685, MHA, 35° C., 20 hours, read-out: Minimum Inhibitory Concentration
Procedure: as §1

[5] = system: Streptococcus Pneumoniae 41; conditions: culture 41, MHA, 35° C., 20 hours, read-out: Minimum Inhibitory Concentration
Procedure: as §1

[6] = system: Escherichia Coli 9451; conditions: COLI9451, culture 9451, MHA, 35° C., 20 hours, read-out: Minimum Inhibitory Concentration
Procedure: as §1

[7] = system: Staphylococcus Aureus 9218; conditions: AUREUS9218, culture 9218, MHA, 35° C., 20 hours, read-out: Minimum Inhibitory Concentration
Procedure: as §1

[8] = system: Enterobacter Cloacae 9381; conditions: CLOACAE9381, culture 9381, MHA, 35° C., 20 hours, read-out: Minimum Inhibitory Concentration
Procedure: as §1

[9] = system: Enterobacter Cloacae 9382; conditions: CLOACAE9382, culture 9382, MHA, 35° C., 20 hours, read-out: Minimum Inhibitory Concentration
Procedure: as §1

[10] = system: Escherichia Coli 9380; conditions: COLI9380, culture 9380, MHA, 35° C., 20 hours, read-out: Minimum Inhibitory Concentration
Procedure: as §1

[11] = system: Staphylococcus Aureus 3665; conditions: AUREUS3665, culture 3665, MHA, 35° C., 20 hours, read-out: Minimum Inhibitory Concentration
Procedure: as §1

[12] = system: Pseudomonas Aeruginosa 9191; conditions: culture 9191, MHA, 35° C., 20 hours, read-out: Minimum Inhibitory Concentration
Procedure: as §1

[13] = system: Pseudomonas Aeruginosa 231; conditions: culture 231, MHA, 35° C., 20 hours, read-out: Minimum Inhibitory Concentration
Procedure: as §1

[14] = system: Proteus Vulgaris 9679; conditions: culture 9679, MHA, 35° C., 20 hours, read-out: Minimum Inhibitory Concentration
Procedure: as §1

[15] = system: Klebsiella Pneumoniae 58; conditions: culture 58, MHA, 35° C., 20 hours, read-out: Minimum Inhibitory Concentration
Procedure: as §1

[16] = system: Klebsiella Oxytoca 9383; conditions: OXYTOCA9383, culture 9383, MHA, 35° C., 20 hours, read-out: Minimum Inhibitory Concentration
Procedure: as §1

[17] = system: Citrobacter Freundli 3507; conditions: culture 3507, MHA, 35° C., 20 hours, read-out: Minimum Inhibitory Concentration
Procedure: as §1

[18] = system: Serratia Marcescens 6888; conditions: culture 6888, MHA, 35° C., 20 hours, read-out: Minimum Inhibitory Concentration
Procedure: as §1

[19] = system: Klebsiella Oxytoca 9384; conditions: OXYTOCA9384, culture 9384, MHA, 35° C., 20 hours, read-out: Minimum Inhibitory Concentration
Procedure: as §1

| MIC [1] [µg/mL] | MIC [2] [µg/mL] | MIC [3] [µg/mL] | MIC [4] [µg/mL] | MIC [5] [µg/mL] | MIC [6] [µg/mL] | MIC [7] [µg/mL] | MIC [8] [µg/mL] | MIC [9] [µg/mL] | MIC [10] [µg/mL] | MIC [11] [µg/mL] | MIC [12] [µg/mL] | MIC [13] [µg/mL] | MIC [14] [µg/mL] | MIC [15] [µg/mL] | MIC [16] [µg/mL] | MIC [17] [µg/mL] | MIC [18] [µg/mL] | MIC [19] [µg/mL] | Compound |
| --- | --- | --- | --- | --- | --- | --- | --- | --- | --- | --- | --- | --- | --- | --- | --- | --- | --- | --- | --- |
| > 0.015 | > 128 | 16 (≈ 23.4 µM) | > 128 | 128 (≈ 187 µM) | > 0.015 | > 128 | 16 (≈ 23.4 µM) | 0.5 (≈ 0.731 µM) | > 0.015 | > 128 | 0.25 (≈ 0.366 µM) | 0.125 (≈ 0.183 µM) | 0.03 (≈ 0.0439 µM) | 0.25 (≈ 0.366 µM) | 0.125 (≈ 0.183 µM) | 0.06 (≈ 0.0878 µM) | 0.03 (≈ 0.0439 µM) | 0.06 (≈ 0.0878 µM) | CC(C)(ON=C(C(=O)NC1CN(C(=O)NS(=O)(=O)n2ncn(NC(=O)c3cc(=O)c(O)c[nH]3)c2=O)C1=O)c1csc(N)n1)C(=O)O (centres unmarked) [Compound U-77938] |
| > 0.008 | > 64 | 32 (≈ 48.8 µM) | > 64 | 64 (≈ 97.6 µM) | 0.015 (≈ 0.0229 µM) | > 64 | 16 (≈ 24.4 µM) | 0.25 (≈ 0.381 µM) | > 0.008 | > 64 | 2 (≈ 3.05 µM) | 2 (≈ 3.05 µM) | 0.125 (≈ 0.191 µM) | 0.25 (≈ 0.381 µM) | 0.25 (≈ 0.381 µM) | 0.06 (≈ 0.0915 µM) | 0.03 (≈ 0.0458 µM) | 0.03 (≈ 0.0458 µM) | Nc1nc(C(=NOCC(=O)O)C(=O)N[C@H]2CN(C(=O)NS(=O)(=O)n3ncn(NC(=O)c4cc(=O)c(O)c[nH]4)c3=O)C2=O)cs1 [Compound U-78284] |

Source: patent US5006650A, “Novel N-1 substituted beta-lactams as antibiotics” (The Upjohn Company, priority 1989, dated 1991)
